# In patent publication US20240025907A1, “QUINAZOLINE PAN-KRas INHIBITORS” (Mirati Therapeutics, Inc., priority 2022, published 2024):
# Where two headings read alike, the source gives them in different places.
# What was measured:
# [1] = test system: KRas-mediated Phosphorylation of ERK in H460 cells; assay: Cisbio HTRF pERK assay, H460 cells; type: cell-based; conditions: Homo sapiens, NCI-H460, 3 h, H460 cells, 3 hrs compound; read-out: Inhibition (HTRF IC50 nM) of KRas-mediated Phosphorylation of ERK, H460
# [2] = target: T1, KRas^G12V (Homo sapiens, UniProt P01116, G12V); assay: KRas TR-FRET tracer displacement binding assay, G12V; conditions: 60-minute incubation
# T1 construct: Biotinylated KRas (corresponding to amino acids 1-169, produced at Accelegan Inc.); biotin (biotinylated); purchased Accelegan Inc
# T1 sequence (P01116 1-169 isoform P01116-2 G12V): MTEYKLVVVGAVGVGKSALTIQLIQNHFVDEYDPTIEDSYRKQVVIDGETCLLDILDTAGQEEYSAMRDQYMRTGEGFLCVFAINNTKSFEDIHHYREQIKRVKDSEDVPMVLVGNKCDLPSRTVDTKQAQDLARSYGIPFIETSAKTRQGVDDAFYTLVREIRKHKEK
# How it was run: (§1)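 TR-FRET displacement: biotinylated KRas (aa 1-169) incubated with Cy5-labelled tracer, terbium streptavidin and compound (1% DMSO final) in 50 mM HEPES pH 7.5, 5 mM MgCl2, 0.005% Tween-20, 1 mM DTT. Read after 60-minute room-temperature incubation.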
# [3] = test system: KRas-mediated Phosphorylation of ERK in H358 cells; assay: Cisbio HTRF pERK assay, H358 cells; type: cell-based; conditions: Homo sapiens, NCI-H358, 3 h, H358 cells, 3 hrs compound; read-out: Inhibition (HTRF IC50 nM) of KRas-mediated Phosphorylation of ERK, H358
# [4] = test system: KRas-mediated Phosphorylation of ERK in PSN1 cells; assay: Cisbio HTRF pERK assay, PSN1 cells; type: cell-based; conditions: Homo sapiens, PSN1, 3 h, 3 hour compound, read-out: Inhibition (HTRF IC50 nM) of KRas-mediated Phosphorylation of ERK, PSN1
# Description: (§2) Inhibition of KRas Phosphorylation of ERK (HTRF) by Exemplary Compounds of Formula (I) • Cisbio HTRF Advanced pERK Assay Catalog #64AERPEH • Cell: MKN1, PSN1 • Procedure: • Day 1: Seed 6,000 cells/well −25 μl/well in 384-well white solid bottom plate; RPM1_10% FBS.
# [5] = test system: KRas-mediated Phosphorylation of ERK in H727 cells; assay: Cisbio HTRF pERK assay, H727 cells; type: cell-based; conditions: 3 hrs compound, read-out: Inhibition (HTRF IC50 nM) of KRas-mediated Phosphorylation of ERK, H727
# [6] = test system: KRas-mediated Phosphorylation of ERK in AsPC-1 cells; assay: Cisbio HTRF pERK assay, AsPC-1 cells; type: cell-based; conditions: 3 hrs compound, read-out: Inhibition (HTRF IC50 nM) of KRas-mediated Phosphorylation of ERK, AsPC-1
# [7] = target: T2, KRas^G12C (Homo sapiens, UniProt P01116, G12C); assay: KRas TR-FRET tracer displacement binding assay, G12C; conditions: 60-minute incubation
# T2 construct: Biotinylated KRas (corresponding to amino acids 1-169, produced at Accelegan Inc.); biotin (biotinylated); purchased Accelegan Inc
# T2 sequence (P01116 1-169 isoform P01116-2 G12C): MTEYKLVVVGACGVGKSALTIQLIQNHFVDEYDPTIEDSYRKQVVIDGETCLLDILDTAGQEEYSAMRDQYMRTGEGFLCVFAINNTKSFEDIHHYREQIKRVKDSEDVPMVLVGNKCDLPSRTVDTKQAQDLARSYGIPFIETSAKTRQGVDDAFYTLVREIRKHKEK
# How it was run: as §1
# [8] = test system: KRas-mediated Phosphorylation of ERK in H2009 cells; assay: Cisbio HTRF pERK assay, H2009 cells; type: cell-based; conditions: Homo sapiens, NCI-H2009, H2009 cells; read-out: Inhibition (HTRF IC50 nM) of KRas-mediated Phosphorylation of ERK, H2009
# [9] = target: T3, KRas^G12S (Homo sapiens, UniProt P01116, G12S); assay: KRas TR-FRET tracer displacement binding assay, G12S; conditions: 60-minute incubation
# T3 construct: Biotinylated KRas (corresponding to amino acids 1-169, produced at Accelegan Inc.); biotin (biotinylated); purchased Accelegan Inc
# T3 sequence (P01116 1-169 isoform P01116-2 G12S): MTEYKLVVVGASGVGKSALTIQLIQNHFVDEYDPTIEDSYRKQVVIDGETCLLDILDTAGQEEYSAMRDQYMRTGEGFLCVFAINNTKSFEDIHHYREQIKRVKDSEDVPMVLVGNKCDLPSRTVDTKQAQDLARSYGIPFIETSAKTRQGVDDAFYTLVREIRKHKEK
# How it was run: as §1
# [10] = test system: KRas-mediated Phosphorylation of ERK in A549 cells; assay: Cisbio HTRF pERK assay, A549 cells; type: cell-based; conditions: Homo sapiens, A549, 3 h, A549 cells, 3 hrs compound; read-out: Inhibition (HTRF IC50 nM) of KRas-mediated Phosphorylation of ERK, A549
# [11] = test system: KRas-mediated Phosphorylation of ERK in HCT116 cells; assay: Cisbio HTRF pERK assay, HCT116 cells; type: cell-based; conditions: Homo sapiens, HCT-116, 3 h, HCT116 cells, 3 hrs compound; read-out: Inhibition (HTRF IC50 nM) of KRas-mediated Phosphorylation of ERK, HCT116
# [12] = target: T4, KRas^WT (Homo sapiens, UniProt P01116); assay: KRas TR-FRET tracer displacement binding assay, WT; conditions: 60-minute incubation
# T4 construct: Biotinylated KRas (corresponding to amino acids 1-169, produced at Accelegan Inc.); biotin (biotinylated); purchased Accelegan Inc
# T4 sequence (P01116 1-169 isoform P01116-2): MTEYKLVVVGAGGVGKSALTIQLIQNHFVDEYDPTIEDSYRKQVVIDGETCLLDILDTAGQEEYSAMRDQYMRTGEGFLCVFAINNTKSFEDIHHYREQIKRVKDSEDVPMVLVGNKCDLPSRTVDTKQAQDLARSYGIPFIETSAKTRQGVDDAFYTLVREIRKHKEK
# How it was run: as §1
# [13] = test system: KRas-mediated Phosphorylation of ERK in MKN1 cells; assay: Cisbio HTRF pERK assay, MKN1 cells; type: cell-based; conditions: Homo sapiens, MKN-1, 3 hour compound, read-out: Inhibition (HTRF IC50 nM) of KRas-mediated Phosphorylation of ERK, MKN1
# Description: as §2
# [14] = target: T5, KRas^G12D (Homo sapiens, UniProt P01116, G12D); assay: KRas TR-FRET tracer displacement binding assay, G12D; conditions: 60-minute incubation
# T5 construct: Biotinylated KRas (corresponding to amino acids 1-169, produced at Accelegan Inc.); biotin (biotinylated); purchased Accelegan Inc
# T5 sequence (P01116 1-169 isoform P01116-2 G12D): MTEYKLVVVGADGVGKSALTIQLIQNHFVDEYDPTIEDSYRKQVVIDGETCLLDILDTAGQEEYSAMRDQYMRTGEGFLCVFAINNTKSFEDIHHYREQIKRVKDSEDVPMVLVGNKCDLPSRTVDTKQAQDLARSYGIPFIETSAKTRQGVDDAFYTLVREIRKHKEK
# How it was run: as §1
# [15] = target: T6, KRas^G12R (Homo sapiens, UniProt P01116, G12R); assay: KRas TR-FRET tracer displacement binding assay, G12R; conditions: 60-minute incubation
# T6 construct: Biotinylated KRas (corresponding to amino acids 1-169, produced at Accelegan Inc.); biotin (biotinylated); purchased Accelegan Inc
# T6 sequence (P01116 1-169 isoform P01116-2 G12R): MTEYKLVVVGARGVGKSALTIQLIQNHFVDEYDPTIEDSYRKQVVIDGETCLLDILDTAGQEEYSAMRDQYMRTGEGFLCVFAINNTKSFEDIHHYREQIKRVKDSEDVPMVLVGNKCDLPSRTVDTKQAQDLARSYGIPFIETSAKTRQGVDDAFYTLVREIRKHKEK
# Description: This Example illustrates that exemplary compounds of the present invention bind to KRas and are capable of displacing a labeled tracer ligand occupying the KRas binding site. KRas^WT, KRas^G12A, KRas^G12C, KRas^G12D, KRas^G12R, KRas^G12S, KRas^G12V, KRas^G13D, or KRas^Q61H was used in the assay.
# The ability of a compound to bind to KRas was measured using a TR-FRET displacement assay. Biotinylated KRas (corresponding to amino acids 1-169, produced at Accelegan Inc.) was incubated with custom made Cy5 labelled tracer, terbium streptavidin (Cisbio Inc.) and compound (1% DMSO final) in buffer (50 mM HEPES, pH 7.5, 5 mM MgCl2, 0.005% Tween-20 and 1 mM DTT). After a 60-minute incubation at room temperature, the reaction was measured using a BMG LABTECH CLARIO star Plus via TR-FRET. […] The POC values were fit to a 4-parameter IC50 equation and the IC50 value reported in Table 1 (selected Examples 172-222).
Structure (SMILES),IC50 [1] [nM],IC50 [2] [nM],IC50 [3] [nM],IC50 [4] [nM],"IC50 ([5]; Homo sapiens, NCI-H727, 3 h) [nM]","IC50 ([6]; Homo sapiens, ASPC1, 3 h) [nM]",IC50 [7] [nM],IC50 [8] [nM],IC50 [9] [nM],IC50 [10] [nM],IC50 [11] [nM],IC50 [12] [nM],IC50 [13] [nM],IC50 [14] [nM],IC50 [15] [nM],IC50 [5] [nM],IC50 [6] [nM]
"CN(C)C(=O)c1cc2n(n1)CCCN(c1nc(OC[C@@]34CCCN3C[C@H](F)C4)nc3c(F)c(-c4ccc(F)c5sc(N)c(C#N)c45)c(F)cc13)C2 [Example 215, 5-(7-(2-amino-3-cyano-7-fluorobenzo[b]thiophen-4-yl)-6,8-difluoro-2-(((2R,7aS)-2-fluorotetrahydro-1H-pyrrolizin-7a(5H)-yl)methoxy)quinazolin-4-yl)-N,N-dimethyl-5,6,7,8-tetrahydro-4H-pyrazolo[1,5-a][1,4]diazepine-2-carboxamide]",223,< 2,21,3820,35,25,4,34,< 2,393,392,< 2,13,< 2,–,–,–
"CCc1c(F)ccc2cc(O)cc(-c3c(F)cc4c(NCc5c[nH]c6ncccc56)nc(OC[C@@]56CCCN5C[C@H](F)C6)nc4c3F)c12 [Example 174, 4-(4-(((1H-pyrrolo[2,3-b]pyridin-3-yl)methyl)amino)-6,8-difluoro-2-(((2R,7aS)-2-fluorotetrahydro-1H-pyrrolizin-7a(5H)-yl)methoxy)quinazolin-7-yl)-5-ethyl-6-fluoronaphthalen-2-ol]",968,9,324,–,694,4020,–,–,–,734,2260,–,–,285,9,–,–
"CCc1c(F)ccc2cc(O)cc(-c3c(F)cc4c(N5CC(c6ccncc6)C5)nc(OC[C@@]56CCCN5C[C@H](F)C6)nc4c3F)c12 [Example 175, 4-(6,8-difluoro-2-(((2R,7aS)-2-fluorotetrahydro-1H-pyrrolizin-7a(5H)-yl)methoxy)-4-(3-(pyridin-4-yl)azetidin-1-yl)quinazolin-7-yl)-5-ethyl-6-fluoronaphthalen-2-ol]",445,12,185,–,422,1280,–,–,–,490,1640,–,–,313,16,–,–

# These reach a lower IC50 [1]. Values come first.
IC50 [1] [nM],IC50 [2] [nM],IC50 [3] [nM],IC50 [4] [nM],"IC50 ([5]; Homo sapiens, NCI-H727, 3 h) [nM]","IC50 ([6]; Homo sapiens, ASPC1, 3 h) [nM]",IC50 [7] [nM],IC50 [8] [nM],IC50 [9] [nM],IC50 [10] [nM],IC50 [11] [nM],IC50 [12] [nM],IC50 [13] [nM],IC50 [14] [nM],IC50 [15] [nM],IC50 [5] [nM],IC50 [6] [nM],Structure (SMILES)
118,4,26,2440,131,175,6,18,5,325,346,6,12,4,–,–,–,"C[C@@]1(O)COCCN(c2nc(OC[C@@]34CCCN3C[C@H](F)C4)nc3c(F)c(-c4ccc(F)c5sc(N)c(C#N)c45)c(F)cc23)C1 [Example 216, 2-amino-4-(6,8-difluoro-2-(((2R,7aS)-2-fluorotetrahydro-1H-pyrrolizin-7a(5H)-yl)methoxy)-4-((S)-6-hydroxy-6-methyl-1,4-oxazepan-4-yl)quinazolin-7-yl)-7-fluorobenzo[b]thiophene-3-carbonitrile]"
4,–,1,260,–,–,–,1,–,8,12,–,1,–,–,5,3,"C[C@@]1(O)COCCN(c2nc(OC[C@@]34CCCN3C[C@H](F)C4)nc3c(F)c(-c4ccc(F)c5sc(N)c(C#N)c45)c(Cl)cc23)C1 (atropisomer, axis not shown; (aS)) [Example 192, 2-amino-4-((R)-6-chloro-8-fluoro-2-(((2R,7aS)-2-fluorotetrahydro-1H-pyrrolizin-7a(5H)-yl)methoxy)-4-((S)-6-hydroxy-6-methyl-1,4-oxazepan-4-yl)quinazolin-7-yl)-7-fluorobenzo[b]thiophene-3-carbonitrile]"
